From patent US7041698B2, “Hepatitis C virus inhibitors” (Bristol-Myers Squibb Company, priority 2002, dated 2006)

Key:
[1] = biological target: T1, HCV NS3/4A protease complex (UniProt P27958, C1454S/C1711G, species not given); assay: Recombinant HCV NS3/4A protease complex FRET peptide assay (strain not stated); assay type: biochemical; conditions: read-out: IC50 range, HCV NS3/4A protease enzyme assay
T1 construct: fused on or other part: Three-lysine solubilising tail at the C-terminus of NS4A

[2] = biological target: T2, porcine pancreatic elastase (PPE) (Sus scrofa, UniProt P00772); assay: Specificity assay, porcine pancreatic elastase; assay type: biochemical; conditions: 2 hr pre-incubation at RT
T2 construct: purchased Sigma
Protocol: The specificities of compounds of the present invention were determined against a variety of serine proteases: human sputum elastase (HS), porcine pancreatic elastase (PPE) and human pancreatic chymotrypsin and one cysteine protease: human liver cathepsin B. In all cases a 96-well plate format protocol using calorimetric p-nitroaniline (pNA) substrate specific for each enzyme was used as described previously (Patent WO 00/09543) with some modifications to the serine protease assays. All enzymes were purchased from Sigma while the substrates were from Bachem.
Each assay included a 2 hr enzyme-inhibitor pre-incubation at RT followed by addition of substrate and hydrolysis to ˜30% conversion as measured on a Spectramax Pro microplate reader. Compound concentrations varied from 100 to 0.4 μM depending on their potency. […]
The percentage of inhibition was calculated using the formula: [1-((UVinh−UVblank)/(UVctl−UVblank))]×100 […]

T2 sequence (P00772 27-266): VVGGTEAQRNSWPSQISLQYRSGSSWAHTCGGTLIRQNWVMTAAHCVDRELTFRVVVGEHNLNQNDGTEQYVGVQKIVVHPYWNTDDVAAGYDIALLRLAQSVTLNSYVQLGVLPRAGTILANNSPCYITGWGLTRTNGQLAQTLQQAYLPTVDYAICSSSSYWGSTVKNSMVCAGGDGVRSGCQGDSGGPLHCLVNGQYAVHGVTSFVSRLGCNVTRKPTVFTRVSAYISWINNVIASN

## C=CC1C[C@]1(NC(=O)[C@@H]1C[C@@H](OC(=O)Nc2ccccc2-c2ccccc2)CN1C(=O)[C@@H](NC(=O)OC(C)(C)C)C(C)(C)C)C(=O)NS(=O)(=O)C1CC1 (stereo partly drawn) [Compound 8, BocNH-P3(t-BuGly)-P2(Hyp(O—CO(NH-biphen-2-yl)))-P1(1R,2S VinylAcca)—CONHSO2Cyclopropane]
[1]
  IC50: < 0.1 µM
[2]
  IC50: > 100 µM
